Laboratory results taken from US6423689B1, “Peptidyl calcium channel blockers” (Warner-Lambert Company, priority 1997, dated 2002).

Experiments:
[1] = test system: Na+ channels in superior cervical ganglion (SCG) neurons; test: Whole-cell voltage clamp, Na+ current in SCG neurons; assay type: cell-based, rat
How it was run: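 Percent inhibition of control amplitude at steady-state block is the read-out: peak inward Na+ current at 0 mV, sustained K+ current at +50 mV, 35 msec steps every 10 sec from −65 to −55 mV. Recordings used whole-cell clamp of trypsin-dissociated SCG neurons, pH 7.4 external and pipette solutions, compounds applied by local perfusion.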

[2] = test system: L-type Ca2+ channels in GH3 cells; test: Inhibition of L-type calcium flux in GH3 cells (Indo-1 fluorescence); assay type: cell-based, rat
Method: Measurement of L-type Ca^2+ Channel Blocking Potencies of Compounds in GH3 Cells Using the Fluorescent Ca^2+ Indicator Indo-1
The GH3 rat pituitary cell line was obtained from the American Type Culture Collection (Rockville, Md.). Cells were grown in Ham's F-10 medium with 15% horse serum, 2.5% fetal bovine serum (FBS), and […] (Gibco, Gaithersburg, Md.). Confluent cells were detached using 0.5 mM EDTA and loaded with 5 μM Indo-acetoxymethyl ester (Molecular Probes, Eugene, Oreg.) in 1% bovine serum albumin (BSA) containing assay buffer (10 mM HEPES/Tris pH 7.4 in Hank's Balanced Salt Solution without bicarbonate or phenol red) for 60 minutes at 30° C. Loaded cells were washed twice, resuspended (approx. 10^7 cells/mL) in assay buffer containing 0.5% BSA, and kept on ice until use (<3 hrs). Different concentrations of the test compounds (60 μL in dimethyl sulfoxide) or controls were added to 5.94 mL of assay buffer containing approximately 3×10^6 loaded cells, and the samples were incubated for 10 minutes at 30° C. After incubation, samples were aliquoted into 3 cuvettes, and their fluorescence was measured with a Photon Technology International (PTI, South Brunswick, N.J.) Model RF-F3004 spectrofluorometer thermostatted at 30° C. Excitation was set at 350 nm and dual emissions were recorded at 400 and 490 nm. Basal emission signals were acquired for 20 seconds, followed by the depolarization of cells by the addition of 200 μL of a stimulation solution (1 M KCl, 68 mM CaCl2) to the stirred cuvette. Emission signals were acquired for an additional 50 seconds after depolarization. Ratio of emission signals (F400 nm/F490 nm), which is proportional to intracellular Ca^2+ concentration, was plotted against time, and the difference between the emission ratio 50 seconds after stimulation and its basal value (before stimulation) was determined. Values obtained in this way were considered as measures of depolarization-induced Ca-flux through L-type channels and plotted as a function of drug concentration. IC50 values of test compounds were calculated by fitting a four-parameter logistic function to the data using the least squares method.

Row | SMILES | melting point [°C] | Inhibition of Na+ Current, % Inhibition at 10 μM [1] [%] | IC50 [2] [µM] | IC50 ([1]; read-out: Inhibition of Na+ Current IC50) [µM]
1 | CC(C)C[C@H](NC(=O)N1CCCCCC1)C(=O)N[C@@H](Cc1ccc(C=Cc2ccccc2)cc1)C(=O)NC(C)(C)C [Example 141, [S-(R*,R*)]-Azepane-1-carboxylic acid {1-[1-tert-butylcarbamoyl-2-(4-styryl-phenyl)-ethylcarbamoyl]-3-methyl-butyl}-amide] | 95 to 96 | 18 | – | –
2 | CC(C)C[C@H](NC(=O)N1CCCCCC1)C(=O)N[C@@H](Cc1ccc(OCc2ccccc2)cc1)C(N)=O [Example 21, [S-(R*,R*)]-Azepane-1-carboxylic acid {1-[2-(4-benzyloxy-phenyl)-1-carbamoyl-ethylcarbamoyl]-3-methyl-butyl}-amide] | – | 16 | – | –
3 | CC(C)C[C@H](NC(=O)N1CCCCCC1)C(=O)N[C@@H](Cc1ccc(OCc2ccccc2)cc1)C(=O)OC(C)(C)C [Example 1] | – | 28 | 4.48 | 14
4 | CC(C)C[C@H](NC(=O)N1CCCCCC1)C(=O)N[C@@H](Cc1ccc(OCc2ccncc2)cc1)C(=O)OC(C)(C)C [Example 26, [S-(R*,R*)]-2-{2-[(Azepane-1-carbonyl)-amino]-4-methyl-pentanoylamino}-3-[4-(pyridin-4-ylmethoxy)-phenyl]-propionic acid tert-butyl ester] | – | 13 | – | –
5 | CC(C)(C)OC(=O)[C@H](Cc1ccc(OCc2ccccc2)cc1)NC(=O)CNC(=O)N1CCCCCC1 (stereo in doubt) [Example 8, [S-(R*,R*)]-2-{2-[(Azepane-1-carbonyl)-amino]-acetylamino}-3-(4-benzyloxy-phenyl)-propionic acid tert-butyl ester] | – | 43 | – | –
6 | CC(C)C[C@H](NC(=O)N1CCCCCC1)C(=O)N[C@@H](Cc1ccc(OCc2ccccn2)cc1)C(=O)OC(C)(C)C [Example 25, [S-(R*,R*)]-2-{2-[(Azepane-1-carbonyl)-amino]-4-methyl-pentanoylamino}-3-[4-(pyridin-2-ylmethoxy)-phenyl]-propionic acid tert-butyl ester] | – | 16 | – | –
7 | CC(C)(C)OC(=O)[C@H](Cc1ccc(OCc2ccccc2)cc1)NC(=O)[C@H](Cc1ccccc1)NC(=O)N1CCCCCC1 [Example 16] | – | 38 | 4.3 | –
8 | CC(C)C[C@H](NC(=O)N1CCCCCC1)C(=O)N[C@@H](Cc1ccc(C#CC2(O)CCCCC2)cc1)C(=O)NC(C)(C)C [Example 138, [S-(R*,R*)]-Azepane-1-carboxylic acid (1-({-tert-butylcarbamoyl-2-[4-(1-hydroxy-cyclohexylethynyl)-phenyl]-ethylcarbamoyl}-3-methyl-butyl)-amide] | 120 to 122 | 31 | – | –
